# Measurements published in the supplement of paper PMC10307832.
# Experiments:
# Experiment in all cases: relative viability (nuclei count vs DMSO), 5 days (fraction); higher = more cells survive
# Pemetrexed + Foretinib = compound: Nc1nc2[nH]cc(CCc3ccc(C(=O)N[C@@H](CCC(=O)O)C(=O)O)cc3)c2c(=O)[nH]1 [Pemetrexed] + COc1cc2c(Oc3ccc(NC(=O)C4(C(=O)Nc5ccc(F)cc5)CC4)cc3F)ccnc2cc1OCCCN1CCOCC1 [Foretinib] (partner 0.25 µM)
# How it was run: (§1)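 Lung cancer cell lines, seeded in 1536-well plates, were treated the following day by pin tool with a single drug or with five library-drug doses (not always all listed) in √10 steps on top of a fixed anchor-drug dose. Cells were fixed and nuclei stained in one step after 5 days, and nuclei were counted. Relative viability is the nuclei count for treated wells divided by that for vehicle wells, reported as medians of duplicate plates.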
# Idelalisib + AZD7762 = compound: CC[C@H](Nc1ncnc2[nH]cnc12)c1nc2cccc(F)c2c(=O)n1-c1ccccc1 [Idelalisib] + NC(=O)Nc1cc(-c2cccc(F)c2)sc1C(=O)N[C@H]1CCCNC1 [AZD7762] (partner 0.2 µM)
# How it was run: as §1
# Pemetrexed + Dasatinib = compound: Nc1nc2[nH]cc(CCc3ccc(C(=O)N[C@@H](CCC(=O)O)C(=O)O)cc3)c2c(=O)[nH]1 [Pemetrexed] + Cc1nc(Nc2ncc(C(=O)Nc3c(C)cccc3Cl)s2)cc(N2CCN(CCO)CC2)n1 [Dasatinib] (partner 0.075 µM)
# How it was run: as §1
# Idelalisib + Lapatinib = compound: CC[C@H](Nc1ncnc2[nH]cnc12)c1nc2cccc(F)c2c(=O)n1-c1ccccc1 [Idelalisib] + CS(=O)(=O)CCNCc1ccc(-c2ccc3ncnc(Nc4ccc(OCc5cccc(F)c5)c(Cl)c4)c3c2)o1 [Lapatinib] (partner 2 µM)
# How it was run: as §1
Cell Line,relative viability (Pemetrexed + Foretinib; first compound 0.002 µM),relative viability (Pemetrexed + Foretinib; first compound 0.006325 µM),relative viability (Pemetrexed + Foretinib; first compound 0.02 µM),relative viability (Pemetrexed + Foretinib; first compound 0.06325 µM),relative viability (Pemetrexed + Foretinib; first compound 0.2 µM),relative viability (Idelalisib + AZD7762; first compound 0.04 µM),relative viability (Idelalisib + AZD7762; first compound 0.1265 µM),relative viability (Idelalisib + AZD7762; first compound 0.4 µM),relative viability (Idelalisib + AZD7762; first compound 1.265 µM),relative viability (Idelalisib + AZD7762; first compound 4 µM),relative viability (Pemetrexed + Dasatinib; first compound 0.002 µM),relative viability (Pemetrexed + Dasatinib; first compound 0.006325 µM),relative viability (Pemetrexed + Dasatinib; first compound 0.02 µM),relative viability (Pemetrexed + Dasatinib; first compound 0.06325 µM),relative viability (Pemetrexed + Dasatinib; first compound 0.2 µM),relative viability (Idelalisib + Lapatinib; first compound 0.04 µM),relative viability (Idelalisib + Lapatinib; first compound 0.1265 µM),relative viability (Idelalisib + Lapatinib; first compound 0.4 µM),relative viability (Idelalisib + Lapatinib; first compound 1.265 µM),relative viability (Idelalisib + Lapatinib; first compound 4 µM)
EMC-BAC-2,1.02,0.923,1.01,1,0.902,1.08,1.1,1.02,1.11,1.08,0.161,0.344,0.32,0.331,0.27,0.91,0.953,0.827,0.905,0.833
EKVX,0.733,0.795,1.05,0.908,0.491,0.706,0.698,0.596,0.558,0.64,0.572,0.544,0.615,0.336,0.479,0.21,0.234,0.184,0.201,0.186
NCI-H2085,1.03,0.737,1.11,0.966,1.17,0.951,0.979,0.887,0.436,0.471,0.23,0.228,0.291,0.23,0.242,0.744,0.757,0.687,0.723,0.503
NCI-H3122,0.931,0.972,0.973,0.973,0.72,0.949,1.01,1.01,0.785,0.998,0.707,0.815,0.659,0.674,0.463,1.06,0.981,1.05,1.03,1.05
HCC-827,0.903,1.03,1.03,1.01,0.916,0.216,0.212,0.31,0.153,0.199,0.369,0.287,0.349,0.362,0.339,0.225,0.191,0.176,0.178,0.157
HARA,0.856,0.87,1,0.846,0.393,0.309,0.301,–,0.169,0.392,0.231,0.237,0.327,0.2,0.162,0.891,0.982,0.651,0.844,0.656
HCC-15,0.987,0.987,1.06,0.645,0.219,1.35,0.909,1.25,1.16,1.21,0.661,0.609,0.619,0.31,0.148,0.828,0.847,0.818,0.983,0.894
ABC-1,1.26,0.927,1.01,0.992,1.08,0.904,0.738,0.783,0.729,0.864,0.785,0.591,0.626,0.546,0.422,1.11,1.19,1.13,1.01,1.08
